One assay has as its system DLD-1 BRCA2−/− cells. The assay can be described thus: Homologous recombination synthetic lethal inhibition of proliferation, DLD-1 BRCA2-/- (Cell Titre Glo 3D). Conditions: for IC50: Homo sapiens. The format is cell-based. The method in brief:
(§1)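 Isogenic DLD-1 pair; BRCA2−/− seeded 3,000 cells/mL and read day 12, wt seeded 1,500 cells/mL and read day 7. 10-pt titration (top 10 μM, 3-fold), re-fed with compound day 6, 37 °C/5% CO2. CTG 3D endpoint; IC50 at 50% signal loss.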

A further assay relates to DLD-1 cells. Description: Inhibition of proliferation, DLD-1 BRCA2 wt control (Cell Titre Glo 3D). It is filed as cell-based. Conditions: for IC50: Homo sapiens. The method in brief: as §1
Setting [1] is: DLD-1, 288 h, DLD-1 BRCA2−/− cells, 12 days, read-out: POLQ PD Prolif Lumin BRCA2 −/− mean pIC50 (converted).
Where [2] appears, read: DLD-1, 168 h, DLD-1 BRCA2 wt cells, 7 days, read-out: POLQ PD Prolif Lumin DLD1 mean pIC50 (converted).
Where [3] appears, read: DLD-1, first proliferation column (c5), DLD-1 BRCA2-/-, read-out: POLQ PD Prolif Lumin (converted).
Setting [4] is: DLD-1, second proliferation column (c6), DLD-1 BRCA2 wt control, read-out: POLQ PD Prolif Lumin (converted).
The mark [5] stands for this setting: DLD-1, DLD-1 BRCA2-/- proliferation, column head only partly shown, read-out: POLQ PD Prolif Lumin (converted).
The mark [6] stands for this setting: DLD-1, DLD-1 BRCA2 wt control proliferation, column head only partly shown, read-out: POLQ PD Prolif Lumin (converted).

Read-outs that look alike come from different tables or passages of the source. Some results are limits rather than exact numbers.

With `CC1(Oc2ncnc3c2nc(-c2ccc(OCCN4CC5(C4)CS(=O)(=O)C5)cc2Cl)n3Cc2ccccc2)CC1` [Example H20, 6-(2-(4-(9-benzyl-6-(1-methylcyclopropoxy)-9H-purin-8-yl)-3-chlorophenoxy)ethyl)-2-thia-6-azaspiro[3.3]heptane 2,2-dioxide], the IC50 in the assay on DLD-1 BRCA2−/− cells (setting [1]) is 0.1 µM; in the assay on DLD-1 cells (setting [2]), 3.98 µM.
Turning to `CC(COc1ccc(-c2nc3c(OC4(C)CC4)ncnc3n2Cc2cccc(Cl)c2)c(Cl)c1)CC(=O)O` (single isomer, unassigned) [Example T295, 4-(3-chloro-4-(9-(3-chlorobenzyl)-6-(1-methylcyclopropoxy)-9H-purin-8-yl)phenoxy)-3-methylbutanoic acid], the “POLQ PD Prolif Lumin” value in the assay on DLD-1 BRCA2−/− cells (DLD-1 BRCA2-/- proliferation, column head only partly shown) was 6.9; with DLD-1 cells (DLD-1 BRCA2 wt control proliferation, column head only partly shown), below 5.0.
`CC1(Oc2ncnc3c2nc(-c2ccc(OCC(N)=O)cc2Cl)n3Cc2ccccc2)CC1` [Example D27, 2-(4-(9-benzyl-6-(1-methylcyclopropoxy)-9H-purin-8-yl)-3-chlorophenoxy)acetamide]: the IC50 was 0.1 µM in the assay with DLD-1 BRCA2−/− cells (setting [1]) and above 10 µM in the assay with DLD-1 cells (setting [2]).
Consider `CC(=O)COc1ccc(-c2nc3c(OC4(C)CC4)ncnc3n2Cc2cc(C)ccn2)c(Cl)c1` [Example T104, 1-(3-chloro-4-(6-(1-methylcyclopropoxy)-9-((4-methylpyridin-2-yl)methyl)-9H-purin-8-yl)phenoxy)propan-2-one], for which the IC50 is 0.2 µM in the assay on DLD-1 BRCA2−/− cells (setting [3]) and above 10 µM in the assay on DLD-1 cells (setting [4]).
As to `CN1CCCC(Oc2ccc(-c3nc4c(OC5(C)CC5)ncnc4n3Cc3ccccc3)c(Cl)c2)CC1` (single isomer, unassigned) [Example D14, 9-benzyl-8-(2-chloro-4-((1-methylazepan-4-yl)oxy)phenyl)-6-(1-methylcyclopropoxy)-9H-purine], the “POLQ PD Prolif Lumin BRCA2 −/− mean pIC50” value with DLD-1 BRCA2−/− cells (DLD-1 BRCA2−/− cells, 12 days) came to 7.0. Also, the “POLQ PD Prolif Lumin DLD1 mean pIC50” value in the assay on DLD-1 cells (DLD-1 BRCA2 wt cells, 7 days) was found to be 5.4.
On to `CC1(Oc2ncnc3c2nc(-c2ccc(OCCCN4CCNC(=O)C4)cc2Cl)n3Cc2ccccc2)CC1` [Example S2, 4-(3-(4-(9-benzyl-6-(1-methylcyclopropoxy)-9H-purin-8-yl)-3-chlorophenoxy)propyl)piperazin-2-one], for which the IC50 in the assay with DLD-1 BRCA2−/− cells (setting [1]) was 0.0501 µM; in the assay with DLD-1 cells (setting [2]), 2.51 µM.
For the compound `Cc1ccc(Cn2c(-c3ccc(OCCN4CCNCC4)cc3Cl)nc3c(OC4(C)CC4)ncnc32)nc1` [Example L8, 8-(2-chloro-4-(2-(piperazin-1-yl)ethoxy)phenyl)-6-(1-methylcyclopropoxy)-9-((5-methylpyridin-2-yl)methyl)-9H-purine], the IC50 in the assay on DLD-1 BRCA2−/− cells (setting [1]) was 2 µM; in the assay with DLD-1 cells (setting [2]), above 10 µM.
On to `Cc1cc(OCCN2CCNCC2)ncc1-c1nc2c(OC3(C)CCC3)ncnc2n1Cc1ccccc1` [Example 24, 9-Benzyl-8-(4-methyl-6-(2-(piperazin-1-yl)ethoxy)pyridin-3-yl)-6-(1-methylcyclobutoxy)-9H-purine], for which the IC50 is 0.158 µM with DLD-1 BRCA2−/− cells (setting [1]) and 3.98 µM in the assay on DLD-1 cells (setting [2]).
The corresponding values for `CN(C)C(=O)c1ccc(-c2nc3c(OC4(C)CC4)ncnc3n2Cc2ccccc2)c(Cl)c1` [Example N1, 4-(9-benzyl-6-(1-methylcyclopropoxy)-9H-purin-8-yl)-3-chloro-N,N-dimethylbenzamide] are 0.2 µM and above 10 µM.
As to `CC(CCOc1ccc(-c2nc3c(OC4(C)CC4)ncnc3n2Cc2cc(C(F)(F)F)cc(C(F)(F)F)c2)c(Cl)c1)C(=O)O` (racemic) [Example T533, 4-(4-(9-(3,5-bis(trifluoromethyl)benzyl)-6-(1-methylcyclopropoxy)-9H-purin-8-yl)-3-chlorophenoxy)-2-methylbutanoic acid], the IC50 was 0.398 µM with DLD-1 BRCA2−/− cells (setting [3]) and above 3.16 µM in the assay on DLD-1 cells (setting [4]).
In the case of `CC1(Oc2ncnc3c2nc(-c2cc(Cl)c(OCCN4CCNCC4)cc2Cl)n3Cc2ccccc2)CC1` [Example J4, 9-benzyl-8-(2,5-dichloro-4-(2-(piperazin-1-yl)ethoxy)phenyl)-6-(1-methylcyclopropoxy)-9H-purine], the values for the IC50 with DLD-1 BRCA2−/− cells (setting [1]) and in the assay with DLD-1 cells (setting [2]) were 0.0501 µM and 3.98 µM, respectively.
In the case of `Cc1ccnc(Cn2c(-c3ccc(C(=O)N4CCCNCC4)cc3Cl)nc3c(OC4(C)CC4)ncnc32)c1` [Example T496, (3-chloro-4-(6-(1-methylcyclopropoxy)-9-((4-methylpyridin-2-yl)methyl)-9H-purin-8-yl)phenyl)(1,4-diazepan-1-yl)methanone], the IC50 in the assay on DLD-1 BRCA2−/− cells (setting [3]) and in the assay with DLD-1 cells (setting [4]) was above 10 µM in each case.
Consider `CC1(Oc2ncnc3c2nc(-c2ccc(OCCN4CCNCC4)cc2Cl)n3Cc2cc(C(F)F)ccn2)CC1` [Example T488, 8-(2-chloro-4-(2-(piperazin-1-yl)ethoxy)phenyl)-9-((4-(difluoromethyl)pyridin-2-yl)methyl)-6-(1-methylcyclopropoxy)-9H-purine], for which the IC50 was 1 µM with DLD-1 BRCA2−/− cells (setting [3]) and above 10 µM in the assay on DLD-1 cells (setting [4]).
`CN(C)C(=O)COc1ccc(-c2nc3c(OC4(C)CC4)ncnc3n2Cc2ccccc2)c(Cl)c1` [Example D20, 2-(4-(9-benzyl-6-(1-methylcyclopropoxy)-9H-purin-8-yl)-3-chlorophenoxy)-N,N-dimethylacetamide]: the values for the IC50 in the assay with DLD-1 BRCA2−/− cells (setting [1]) and in the assay on DLD-1 cells (setting [2]) were 0.2 µM and above 10 µM, respectively.
The corresponding values for `CC(=O)N1CCN(CCOc2ccc(-c3nc4c(OC(C)C)ncnc4n3Cc3ccccc3)c(C)c2)CC1` [Example B4, 1-(4-(2-(4-(9-benzyl-6-isopropoxy-9H-purin-8-yl)-3-methyl-phenoxy)ethyl)piperazin-1-yl)ethan-1-one] are 0.794 µM and above 10 µM.
On to `CC1(Oc2ncnc3c2nc(-c2ccc(OCCN4CC(O)C4)cc2Cl)n3Cc2cc(C(F)(F)F)ccn2)CC1` [Example T284, 1-(2-(3-chloro-4-(6-(1-methylcyclopropoxy)-9-((4-(trifluoromethyl)pyridin-2-yl)methyl)-9H-purin-8-yl)phenoxy)ethyl)azetidin-3-ol], for which the IC50 is 0.501 µM with DLD-1 BRCA2−/− cells (setting [5]) and above 10 µM in the assay on DLD-1 cells (setting [6]).
In the case of `CC1(Oc2ncnc3c2nc(-c2ccc(N4CCC(N)CC4)cc2Cl)n3Cc2ccccc2)CC1` [Example M2, 1-(4-(9-benzyl-6-(1-methylcyclopropoxy)-9H-purin-8-yl)-3-chlorophenyl)piperidin-4-amine], the figures for the IC50 in the assay with DLD-1 BRCA2−/− cells (setting [1]) and with DLD-1 cells (setting [2]) were 0.316 µM and 5.01 µM, respectively.
Consider `Cc1ccnc(Cn2c(-c3ccc(O[C@H]4CCNC4=O)cc3Cl)nc3c(OC4(C)CC4)ncnc32)c1` [Example T185, (S)-3-(3-chloro-4-(6-(1-methylcyclopropoxy)-9-((4-methylpyridin-2-yl)methyl)-9H-purin-8-yl)phenoxy)pyrrolidin-2-one], for which the IC50 in the assay on DLD-1 BRCA2−/− cells (setting [3]) was 0.501 µM; with DLD-1 cells (setting [4]), above 10 µM.
As for `CC1(Oc2ncnc3c2nc(-c2cccc(OC(C)(C)C(=O)O)c2Cl)n3Cc2cccc(Cl)c2)CC1` [Example T158, 2-(2-chloro-3-(9-(3-chlorobenzyl)-6-(1-methylcyclopropoxy)-9H-purin-8-yl)phenoxy)-2-methylpropanoic acid], the IC50 in the assay on DLD-1 BRCA2−/− cells (setting [3]) and with DLD-1 cells (setting [4]) was above 10 µM throughout.
With `Cc1c(Cl)ccnc1Cn1c(-c2ccc(OCCN3CCNCC3)cc2Cl)nc2c(OC3(C)CC3)ncnc21` [Example T525, 9-((4-chloro-3-methylpyridin-2-yl)methyl)-8-(2-chloro-4-(2-(piperazin-1-yl)ethoxy)phenyl)-6-(1-methylcyclopropoxy)-9H-purine], the IC50 in the assay with DLD-1 BRCA2−/− cells (setting [3]) is 1.26 µM; in the assay with DLD-1 cells (setting [4]) it was above 10 µM.
For `Cc1ccnc(Cn2c(-c3ccc(CCN(C)C)cc3Cl)nc3c(OC4(C)CC4)ncnc32)c1` [Example T236, 2-(3-chloro-4-(6-(1-methylcyclopropoxy)-9-((4-methylpyridin-2-yl)methyl)-9H-purin-8-yl)phenyl)-N,N-dimethylethan-1-amine], the results for the IC50 in the assay with DLD-1 BRCA2−/− cells (setting [5]) and with DLD-1 cells (setting [6]) were 0.251 µM and above 10 µM, respectively.
For the compound `CC1(Oc2ncnc3c2nc(-c2ccc(OCCN4CCNCC4)cc2F)n3Cc2cc(Cl)ccn2)CC1` [Example T349, 9-((4-chloropyridin-2-yl)methyl)-8-(2-fluoro-4-(2-(piperazin-1-yl)ethoxy)phenyl)-6-(1-methylcyclopropoxy)-9H-purine], the IC50 with DLD-1 BRCA2−/− cells (DLD-1, first proliferation column (c5), taken as DLD-1 BRCA2-/-, read-out: POLQ PD Prolif Lumin (converted)) is 0.631 µM; in the assay on DLD-1 cells (DLD-1, second proliferation column (c6), taken as DLD-1 BRCA2 wt, read-out: POLQ PD Prolif Lumin (converted)), above 10 µM.
Regarding `CC(=O)N1CCN(CCCOc2ccc(-c3nc4c(OC5(C)CC5)ncnc4n3Cc3ccccc3)c(Cl)c2)CC1` [Example D22, 1-(4-(3-(4-(9-benzyl-6-(1-methylcyclopropoxy)-9H-purin-8-yl)-3-chlorophenoxy)propyl)piperazin-1-yl)ethan-1-one], the IC50 is 0.126 µM with DLD-1 BRCA2−/− cells (setting [1]) and above 10 µM in the assay with DLD-1 cells (setting [2]).
Consider `Cc1cc(N2CCC(N)CC2)ncc1-c1nc2c(OC3(C)CC3)ncnc2n1Cc1ccccc1` [Example F1, 1-(5-(9-benzyl-6-(1-methylcyclopropoxy)-9H-purin-8-yl)-4-methylpyridin-2-yl)piperidin-4-amine], for which the IC50 was 0.398 µM in the assay on DLD-1 BRCA2−/− cells (setting [1]) and above 10 µM in the assay with DLD-1 cells (setting [2]).

Source of the values: US20250195530A1, “POLQ INHIBITORS” (ASTRAZENECA AB, priority 2022, published 2025).
